From patent US8372617B2, “β-galactoside-α2,6-sialyltransferase, a gene encoding thereof, and a method for enhancing enzyme activity” (Japan Tobacco Inc., priority 2007, dated 2013)

Assays:
[1] = tested on: recombinant β-galactoside-α2,6-sialyltransferase N1C0; test: Glycosyl acceptor substrate specificity, monosaccharides and disaccharides; assay type: biochemical, Photobacterium leiognathi; settings: for % (nmol), relative activity toward acceptor substrate: sialyltransferase activity toward lactose set to 100; for transfer of sialic acid to acceptor substrate: 11 monosaccharides and disaccharides tested
Text: The purified enzyme prepared in Example 3 for JT-SHIZ-145-derived recombinant β-galactoside-α2,6-sialyltransferase N1C0 (SEQ ID NO: 4) was used to cause sialic acid transfer reaction in various monosaccharides/disaccharides as glycosyl acceptor substrates. The reaction was accomplished as described in J. Biochem., 120, 104-110 (1996). The monosaccharides used as glycosyl acceptor substrates were the following 8 types: methyl-α-D-galactopyranoside (Gal-α-OMe), methyl-β-D-galactopyranoside (Gal-β-OMe), methyl-α-D-glucopyranoside (Glc-α-OMe), methyl-β-D-glucopyranoside (Glc-β-OMe), methyl-α-D-mannopyranoside (Man-α-OMe), methyl-β-D-mannopyranoside (Man-β-OMe), N-acetylgalactosamine (GalNAc), and N-acetylglucosamine (GlcNAc). The disaccharides used were the following 3 types: lactose (Gal-β1,4-Glc), N-acetyllactosamine (Gal-β1,4-GlcNAc) and Gal-β1,3-GalNAc.
It should be noted that the relative activity toward each acceptor substrate was calculated assuming that the sialyltransferase activity toward lactose was set to 100.

[2] = tested on: recombinant β-galactoside-α2,6-sialyltransferase N1C0; test: Effect of addition of various salts (complex ions, Na+/K+) on enzyme activity; assay type: biochemical, Photobacterium leiognathi; settings: anion concentration 0.1 M in Tris-HCl, 30° C.; compared to absence of addition
Experimental: Aqueous solutions were prepared for potassium nitrate (KNO3), sodium nitrate (NaNO3), potassium sulfate (K2SO4), sodium sulfate (Na2SO4), sodium dihydrogen phosphate (NaH2PO4), disodium hydrogen phosphate (Na2HPO4) and potassium phosphate (KH2PO4+K2HPO4 (abbreviated as KPB)). These aqueous solutions were each adjusted with Tris-HCl buffer to give an anion concentration of 0.1 M in the reaction solution at 30° C., and used for enzyme activity measurement.
It should be noted that enzyme activity in the reaction solution upon addition of each solution was evaluated as relative activity, assuming that the enzyme activity in the absence of addition (i.e., in Tris-HCl alone) was set to 1.

[3] = tested on: recombinant β-galactoside-α2,6-sialyltransferase N1C0
Experimental: Using a crude enzyme solution, enzyme activity was measured in a reaction solution adjusted to contain calcium chloride and/or EDTA at a final concentration of 10 mM for calcium ion and 50 mM for EDTA.

[4] = tested on: recombinant β-galactoside-α2,6-sialyltransferase N1C0; test: Optimum pH for enzyme activity; assay type: biochemical, Photobacterium leiognathi; settings: phosphate buffer, 30° C.
Experimental: Acetate buffer (pH 4-5), cacodylate buffer (pH 5-6), Bis-Tris buffer (pH 6-7), phosphate buffer (pH 6-9.5), Tris-HCl buffer (pH 7-9.5), TAPS buffer (pH 8-9), CHES buffer (pH 9-10) and CAPS buffer (pH 10-11) were prepared and used for enzyme activity measurement at 30° C. at various pH values.
It should be noted that enzyme activity at each pH was evaluated as relative activity, assuming that the enzyme activity at pH 8.0 in phosphate buffer was set to 1.

[5] = tested on: β-galactoside-α2,6-sialyltransferase from the strain JT-SHIZ-145; test: Sialyltransferase activity measurement of crude enzyme solution from E. coli transformed with SHIZ145-N1C0/pTrc99A (14C CMP-NeuAc donor, lactose acceptor); assay type: biochemical, Photobacterium leiognathi; settings: insert +, 120 mM lactose, 0.5 M NaCl, 30° C. for 30 minutes
Experimental: Among the two expression vectors obtained above, SHIZ145-N1C0/pTrc99A was used to perform an induction experiment of protein expression. A single colony of E. coli TB1 having the expression vector pTrc99A carrying the SHIZ145-N1C0 clone (SEQ ID NO: 3) was inoculated into LB medium (6 ml) containing an antibiotic, ampicillin (final concentration […]), and pre-cultured at 30° C. to about A600=0.5, followed by addition of IPTG (isopropyl-β-D(−)-thiogalactopyranoside, Wako Pure Chemical Industries, Ltd., Japan) at a final concentration of 1 mM to initiate expression induction. After culturing overnight with shaking at 30° C., the cells in 2 ml culture solution were collected by centrifugation. These cells were suspended in 400 μl of 20 mM Bis-Tris buffer (pH 6.0) containing 0.336% Triton X-100, and ultrasonically homogenized under ice cooling. The resulting homogenate was defined as a crude enzyme solution and provided for sialyltransferase activity measurement. Measurement was accomplished as described in J. Biochem., 120, 104-110 (1996) (hereby incorporated by reference in its entirety). […] Radioactivity was measured for the reaction product, i.e., sialyllactose contained in the eluate from the column to calculate the enzyme activity.

[6] = tested on: β-galactoside-α2,6-sialyltransferase; test: Binding mode of sialic acid: reaction with PA-lactose and CMP-NeuAc, HPLC analysis; assay type: biochemical, Photobacterium leiognathi; settings: pyridylaminated lactose as glycosyl acceptor
Experimental: To determine the binding mode of sialic acid, a reaction using PA-lactose as a substrate was then performed. The enzymatic reaction was accomplished by using the resulting crude enzyme solution and a pyridylaminated sugar chain as a glycosyl acceptor substrate. The pyridylaminated sugar chain used for analysis was pyridylaminated lactose (Galβ1-4Glc-PA, Takara Bio Inc., Japan). To 5 μl of the crude enzyme solution, 1.5 μl of 5 mM CMP-NeuAc and 1.5 μl of 10 pmol/μl glycosyl acceptor substrate were added and reacted at 25° C. for 18 hours. After completion of the reaction, the reaction solution was treated at 100° C. for 2 minutes to inactivate the enzyme, followed by HPLC to analyze the reaction product. The HPLC system used was Shimadzu LC10A (Shimadzu Corporation, Japan) and the analytical column used was Takara PALPAK Type R (Takara Bio Inc., Japan). […] The analysis was performed under the following conditions: flow rate: 1 ml/min, column temperature: 40° C., detection: fluorescence (Ex: 320 nm, Em: 400 nm).
Further analysis was performed to examine whether sialyltransferase expressed by E. coli cells transformed in (5) above with SHIZ145-N1C0/pTrc99A had β-galactoside-α2,6-sialyltransferase activity. […] As a result, PA-6′-sialyllactose (Neu5Acα2-6Galβ1-4Glc-PA) was detected, as in the case of Example 1.

[7] = tested on: recombinant β-galactoside-α2,6-sialyltransferase N1C0; test: Optimum temperature for enzyme activity; assay type: biochemical, Photobacterium leiognathi; settings: phosphate buffer (pH 8.0), 10° C. up to 50° C.
Experimental: The enzyme activity was measured at an interval of 5° C. starting from 10° C. up to 50° C. using phosphate buffer (pH 8.0).
As a result, as shown in FIG. 2-2, the enzyme activity was maximum at 30° C. It should be noted that enzyme activity at each temperature was evaluated as relative activity, assuming that the enzyme activity at 30° C. was set to 100.

| Molecule | % (nmol), relative activity toward acceptor substrate [1] [%] | transfer of sialic acid to acceptor substrate [1] | other results |
| --- | --- | --- | --- |
| CO[C@H]1O[C@H](CO)[C@H](O)[C@H](O)[C@H]1O [Gal-α-OMe, methyl-α-D-galactopyranoside] | 2 | – | – |
| CO[C@H]1O[C@H](CO)[C@@H](O)[C@H](O)[C@H]1O [Glc-α-OMe, methyl-α-D-glucopyranoside] | 0 | – | – |
| potassium phosphate (KH2PO4+K2HPO4 (abbreviated as KPB)) [potassium phosphate (KPB)] | – | – | effect of addition on enzyme activity [2]: maximum |
| OC[C@H]1O[C@@H](O[C@H]2[C@H](O)[C@@H](O)C(O)O[C@@H]2CO)[C@H](O)[C@@H](O)[C@H]1O (stereo partly drawn) [Gal-β1,4-Glc, lactose] | 100 | efficiently transferred | – |
| CO[C@H]1O[C@H](CO)[C@@H](O)[C@H](O)[C@@H]1O [Man-α-OMe, methyl-α-D-mannopyranoside] | 0 | – | – |
| CC(=O)N[C@H]1C(O)O[C@H](CO)[C@@H](O[C@@H]2O[C@H](CO)[C@H](O)[C@H](O)[C@H]2O)[C@@H]1O (stereo partly drawn) [Gal-β1,4-GlcNAc, N-acetyllactosamine] | 205 | efficiently transferred | – |
| CO[C@@H]1O[C@H](CO)[C@H](O)[C@H](O)[C@H]1O [Gal-β-OMe, methyl-β-D-galactopyranoside] | 59 | efficiently transferred | – |
| CO[C@@H]1O[C@H](CO)[C@@H](O)[C@H](O)[C@H]1O [Glc-β-OMe, methyl-β-D-glucopyranoside] | 0 | – | – |
| CC(=O)N[C@H]1C(O)O[C@H](CO)[C@@H](O)[C@@H]1O (stereo partly drawn) [GlcNAc, N-acetylglucosamine] | 6 | – | – |
| CC(=O)N[C@H]1C(O)O[C@H](CO)[C@H](O)[C@@H]1O[C@@H]1O[C@H](CO)[C@H](O)[C@H](O)[C@H]1O (stereo partly drawn) [Gal-β1,3-GalNAc] | 71 | efficiently transferred | – |
| [Ca+2].[Cl-].[Cl-] [calcium ion, calcium chloride] | – | – | enzyme activity with calcium ion together with EDTA ([3]; 10 mM calcium ion and 50 mM EDTA): almost the same level as in the absence of calcium ion; enzyme activity in the presence of calcium ion ([3]; 10 mM calcium ion, compared to absence of calcium ion): remarkably increased |
| CO[C@@H]1O[C@H](CO)[C@@H](O)[C@H](O)[C@@H]1O [Man-β-OMe, methyl-β-D-mannopyranoside] | 0 | – | – |
| O=P([O-])([O-])O.[Na+].[Na+] [disodium hydrogen phosphate] | – | – | effect of addition on enzyme activity [2]: maximum |
| CC(=O)N[C@H]1C(O)O[C@H](CO)[C@H](O)[C@@H]1O (stereo partly drawn) [GalNAc, N-acetylgalactosamine] | 35 | efficiently transferred | – |
| SHIZ145-N1C0: β-galactoside-α2,6-sialyltransferase from strain JT-SHIZ-145 lacking the amino acids of the signal peptide region, expressed in E. coli (protein) MCNDNQNTVDVVVSTVNDNVIENNTYQVKPIDTPTTFDSYSWIQTCGTPILKDDEKYSLSFDFVAPELDQDEKFCFEFTGDVDGKRYVTQTNLTVVAPTLEVYVDHASLPSLQQLMKIIQQKNEYSQNERFISWGRIRLTEDNAEKLNAHIYPLAGNNTSQELVDAVIDYADSKNRLNLELNTNTGHSFRNIAPILRATSSKNNILISNINLYDDGSAEYVSLYNWKDTDNKSQKLSDSFLVLKDYLNGISSEKPNGIYSIYNWHQLYHSSYYFLRKDYLTVETKLHDLREYLGGSLKQMSWDTFSQLSKGDKELFLNIVGFDQEKLQQEYQQSELPNFVFTGTTTWAGGETKEYYAQQQVNVVNNAINETSPYYLGREHDLFFKGHPRGGIINDIILGSFNNMIDIPAKVSFEVLMMTGMLPDTVGGIASSLYFSIPAEKVSFIVFTSSDTITDREDALKSPLVQVMMTLGIVKEKDVLFWC | – | – | pH at which the enzyme activity reached maximum [4]: 8.0; NeuAc transferred (cpm) [5]: 8326 cpm; PA-6′-sialyllactose (Neu5Acα2-6Galβ1-4Glc-PA) product [6]: detected; temperature at which the enzyme activity was maximum [7]: 30 °C |
